Laboratory results from patent US20190256626A1, “SURFACTANTS AND METHODS FOR MAKING SAME” (REGENTS OF THE UNIVERSITY OF MINNESOTA, priority 2016, published 2019).
Marks after values point to notes of the source that are not given here.

Legend:
[1] = DSC of Dispersions A-J (oxaprozin or 5-methyl-5-phenylhydantoin) and pure drugs; assay type: physicochemical; conditions: heating rate 10° C./min
Procedure: (§1) Thermogravimetric analysis (TGA) of Dispersions A-J was performed using a Q500 instrument from TA Instruments. The decomposition temperature (Td) at 5% was recorded for each dispersion and Td,1% was recorded for the pure drugs. Td,5% was recorded for the dispersions due to the hydrophilic properties of the surfactants, which required removal of surface moisture before the materials began to decompose. Differential Scanning Calorimetry (DSC) experiments were performed on Dispersions A-J and pure oxaprozin and 5-methyl-5-phenylhydantoin using a Discovery Series instrument from TA Instruments. Each dispersion was heated twice to Td,5%. The pure compounds were heated twice to Td,1%. The heating rate in all experiments was 10° C./min. […] These values approached the Tg value of pure surfactants (135.76° C.) as the ratio of the molecular weight of the poly(N-isopropylacrylamide) hydrophilic segment in kDa/mol to (m+1) increased. Generally, the dispersions including oxaprozin yielded lower Tg values. Without being bound by theory, the lower Tg values might be attributable to the larger size of oxaprozin, which would further disrupt surfactant packing.

[2] = TGA of Dispersions A-J (oxaprozin or 5-methyl-5-phenylhydantoin) and pure drugs; assay type: physicochemical; conditions: pure drugs
Procedure: as §1

| Structure (SMILES) | First Heat Tg [1] [°C] | Td,1% [2] |
| --- | --- | --- |
| CC1(c2ccccc2)NC(=O)NC1=O (stereo not shown) [5-methyl-5-phenylhydantoin] | 134 | 188* ° C. |
| O=C(O)CCc1nc(-c2ccccc2)c(-c2ccccc2)o1 [Oxaprozin, oxaprozin] | 21 | 206* ° C. |
